Data from ChEMBL document CHEMBL4673236, “Synthesis and biological effect of lysosome-targeting fluorescent anion transporters with enhanced anionophoric activity” (Bioorg Med Chem Lett, 2020).
Calls of active or inactive are those of the source. The rule behind the calls is not given here.

Legend:
[1] = Aniono-phoric activity in egg-yolk L-aphosphatidylcholine vesicle assessed as increase in efflux of chloride ion at 0.5 mol% by electrode technique
[2] = Aniono-phoric activity in egg-yolk L-aphosphatidylcholine vesicle assessed as increase in efflux of chloride ion by pH discharge experiment
[3] = Drug localization in lysosome of human HeLa cells at 20 uM incubated for 6 hrs by confocal microscopic analysis; type: ADME, subcellular
[4] = Induction of lysosome alkalization in human HeLa cells assessed as increase in lysosomal pH incubated for 4 hrs by LysoSensor Green […] staining based confocal microscopic analysis; type: subcellular; conditions: dose 1.5-5 µM
[5] = Induction of lysosome alkalization in human HeLa cells assessed as pixel intensity ratio of red fluorescence to green fluorescence at 5 uM incubated for 4 hrs by acridine orange staining based confocal microscopic analysis relative to control; type: subcellular
[6] = Induction of lysosome alkalization in human HeLa cells incubated for 4 hrs by acridine orange staining based confocal microscopic analysis; type: subcellular; conditions: dose 1.5-5 µM
[7] = system: HeLa; assay: Induction of lysosomal alkalization in human HeLa cells assessed as reduction in Cathepsin B activity at 5 uM using MR-(RR2) as substrate preincubated for 5 hrs followed by substrate addition and measured after 1 hr by confocal microscopic analysis; type: functional, cell-based; conditions: time 6.0 hrs

Activity [1] | EC50 [2] | Drug uptake [3] | Activity [4] | Ratio [5] | Activity [6] | SMILES | Activity [7]
inactive | Nd(Insoluble) | Not Active | – | – | – | Cc1cc(=O)oc2cc(Nc3c(Nc4ccccc4)c(=O)c3=O)ccc12 | –
inactive | Nd(Insoluble) | – | Dose-dependent effect | 0.69 | Dose-dependent effect | Cc1cc(=O)oc2cc(Nc3c(Nc4ccc(N5CCOCC5)cc4)c(=O)c3=O)ccc12 | Active
Active | 9.09 mol% | Active | Dose-dependent effect | 0.08 | Dose-dependent effect | O=c1cc(CN2CCOCC2)c2ccc(Nc3c(Nc4cc(C(F)(F)F)cc(C(F)(F)F)c4)c(=O)c3=O)cc2o1 | Active
inactive | 0.11 mol% | Active | Dose-dependent effect | 0.52 | Dose-dependent effect | O=c1cc(CN2CCOCC2)c2ccc(Nc3c(Nc4ccc(C(F)(F)F)cc4)c(=O)c3=O)cc2o1 | Active
